For orientation: ED50 means the dose that gives a 50% effect, or the effect in half of the subjects. A higher ED50 goes with a need for a large dose. What is called IC50 is the midpoint of a concentration-inhibition curve. The term melting point denotes the temperature, or range, at which the solid turns liquid.

Where a name gives a salt, the structure may show the parent alone.

One data set concerns formaldehyde-induced nociception. The data set is described as follows: Formaldehyde test (rat), second phase. The class given is in vivo. The note with it: iv, male Sprague-Dawley rats, second (late) phase of formaldehyde test, pain rate change relative to control. On the procedure:
The investigations for determining the antinociceptive action of the compounds used according to the invention of the general formula II were carried out by the formaldehyde test on male rats (Sprague-Dawley, 150-170 g, Charles River).
In the formaldehyde test, a distinction is drawn between the first (early) phase (0-15 min after formaldehyde injection) and the second (later) phase (15-60 min after formaldehyde injection), as described in D. Dubuisson, S. G. Dennis, Pain 4, 161-174 (1977). […]
A nociceptive reaction was induced in the freely mobile test animals by a single, subcutaneous formaldehyde injection (50 μl, 5 wt. %) into the dorsal side of the rear hind paw, the reaction being classed according to one of the following behavioural parameters: lifting and holding up the affected paw (score 1), shaking or twitching (score 2), licking and biting (score 3). The differential behaviour induced by the formaldehyde injection was recorded by observing the rats in the late phase of the formaldehyde test and assigned a variable weighting in the evaluation. Normal behaviour, in which the rat places an even load on all four paws, was recorded as a score of 0. […] The nociceptive behaviour was calculated as a “pain rate” (PR). […]
The analgesic action of the compounds of the general formula II used according to the invention was determined as described above.
The molecule `CC1=CC2=NCC(C(=O)c3ccc4ccccc4c3)CN2C=C1` (stereo not drawn) [Example 1, 3-(2′-Naphthoyl)-3,4-dihydro-2H-8-methylpyrido[1,2-a]pyrimidinium perchlorate] came in with an ED50 of 7.27 mg/kg.

In a further data set the target is T1, NO synthase (Rattus norvegicus, UniProt P29476).
T1 construct: the supernatant was then decanted off and frozen in portions at −80° C., discarding the precipitate; from tissue; host or cells: rat cerebellum, 20,000 g supernatant of homogenate
Put plainly: NOS / HTS-NOS assay (radioactive arginine conversion, rat cerebellum enzyme preparation). The class given is biochemical. Conditions: rat cerebellum supernatant enzyme, [3H]-arginine substrate, 25° C.; read-out: NOS Arg IC50. The text has this:
This assay makes it possible to determine the percentage inhibition of NO synthase (hereinafter referred to as the enzyme) by a compound of the general formula II used according to the invention, optionally in the form of one of the pure stereoisomers thereof, in particular enantiomers or diastereomers, the racemates thereof or in the form of a mixture of stereoisomers, in particular the enantiomers or diastereomers, in any desired mixing ratio, or in each case in the form of the free base thereof or in the form of the physiologically acceptable salt thereof, in particular hydroperchlorate salt or in each case in the form of the solvate thereof, in particular hydrate (hereinafter referred to as the active ingredient), by measuring enzyme activity on exposure to the compound. The enzyme is here mixed under suitable conditions together with radioactively labelled arginine and the particular active ingredient. After termination of the NO formation reaction at a predetermined time, the quantity of unconverted arginine is directly or indirectly determined.
This assay may be carried out at follows: • (a) Incubation of the enzyme with labelled arginine as the substrate in a reaction vessel, • (b) Separation of the labelled arginine from the labelled citrulline optionally arising as a product of the enzymatic reaction at a time at which the concentration of citrulline is rising, • (c) Measurement of the quantity of arginine separated in each case.
Separation is performed by means of a filter plate membrane.
Radioactive arginine is used as the substrate in this HTS-NOS assay. Depending on the type of microtitre plate (MTP), the assay volume may be selected in the range between 25 μl and 250 μl. Depending on the enzyme source used, cofactors and coenzymes are added. The batches are incubated in this microtitre plate (assay MTP) according to step (a) at room temperature and, depending on the enzyme activity used (units), lasts between 5 and 60 minutes. On completion of incubation (step (a)), the plate is placed in a cell harvester, which is equipped with an MTP which has a cation exchange membrane as a filter bottom (filter MTP). All the batches from the assay MTP are transferred into this filter MTP and suction filtered through a cation exchange filter plate, a paper filter loaded with phosphate groups. The filter MTP is then washed with buffer or water. This procedure binds the remaining substrate arginine onto the cation exchanger, while the enzymatically formed radioactive citrulline is quantitatively eluted. Once the filter MTP has been dried and scintillation liquid (Ready Protein, Beckmann Coulter GmbH, Krefeld, Germany) added, the bound arginine can be counted in the scintillation counter (Packard TRI-CARB Liquid Scintillation Analyzer 2000 CA, Packard Instrument, Meriden, Conn. 06450, USA). Low radioactivity indicates an uninhibited enzyme reaction. An inhibited enzyme reaction means that the radioactive arginine has not been converted. It may be concluded from this that there is then a high level of radioactivity on the filter.
The NOS and HTS-NOS assays were performed as described above.
Rat cerebella were used as the starting tissue. The animals were stunned and killed, the brain tissue, the cerebellum, was dissected out, 1 ml of enzyme preparation buffer (4° C.) was added per cerebellum, and the tissue was disrupted for 1 min at 6000 rpm in a Polytron homogeniser. The mixture was then centrifuged at 4° C. for 15 min at 20,000 g, and the supernatant was then decanted off and frozen in portions at −80° C., discarding the precipitate. The frozen supernatant was subsequently thawed for the assay and pipetted out onto a microtitre plate.
96-well MTPs with a well capacity of <250 μl were used.
Once pipetting was complete, a lid was placed on this MTP (assay MTP) and incubation performed at 25° C. (room temperature [RT]) for 5-60 min, depending on the quantity and activity of the enzyme used (see in this connection Table 1). […]
For the molecule `CC1=CC2=NCC(C(=O)c3ccc(F)cc3)CN2C=C1` (stereo not drawn) [Example 4, 3-(4′-Fluorobenzoyl)-3,4-dihydro-2H-8-methylpyrido[1,2-a]pyrimidinium perchlorate], the IC50 was 8.5 µM.
Consider `CC1=CC2=NCC(C(=O)c3ccc4ccccc4c3)CN2C=C1` (stereo not drawn) [Example 1, 3-(2′-Naphthoyl)-3,4-dihydro-2H-8-methylpyrido[1,2-a]pyrimidinium perchlorate], for which the IC50 was found to be 1.4 µM.
In the case of `CC1=CC2=NCC(C(=O)c3ccc(-c4ccccc4)cc3)CN2C=C1` (stereo not drawn) [Example 8, 3-(4′-Biphenylcarbonyl)-3,4-dihydro-2H-8-methylpyrido[1,2-a]pyrimidinium perchlorate], the IC50 amounted to 13 µM.
On to `CC1=CC2=NCC(C(=O)c3ccccc3)CN2C=C1` (stereo not drawn) [Example 5, 3-Benzoyl-3,4-dihydro-2H-8-methylpyrido[1,2-a]pyrimidinium perchlorate], for which the IC50 amounted to 9.1 µM.
On to `CC1=CC=CC2=NCC(C(=O)c3ccc(-c4ccccc4)cc3)CN12` (stereo not drawn) [Example 9, 3-(4′-Biphenylcarbonyl)-3,4-dihydro-2H-6-methylpyrido[1,2-a]pyrimidinium perchlorate], for which the half-maximal inhibitory concentration (IC50) is 7.6 µM.
Still for that read-out and setting: for `CC1=CC2=NCC(C(=O)c3ccc4ccccc4c3)CN2C(C)=C1` (stereo not drawn) [Example 2, 3-(2′-Naphthoyl)-3,4-dihydro-2H-6,8-dimethylpyrido[1,2-a]pyrimidinium perchlorate] the value was 6.7 µM; for `CC1=CC2=NCC(C(=O)c3ccc(Br)cc3)CN2C=C1` (stereo not drawn) [Example 3, 3-(4′-Bromobenzoyl)-3,4-dihydro-2H-8-methylpyrido[1,2-a]pyrimidinium perchlorate], 14 µM.
The same measure, in the same setting: with `CC1=CC2=NCC(C(=O)c3ccccc3)CN2C(C)=C1` (stereo not drawn) [Example 6, 3-Benzoyl-3,4-dihydro-2H-6,8-dimethylpyrido[1,2-a]pyrimidinium perchlorate] the figure was 8.4 µM; with `CC1=CC2=NCC(C(=O)c3ccc(Cl)cc3)CN2C=C1` (stereo not drawn) [Example 7, 3-(4′-Chlorobenzoyl)-3,4-dihydro-2H-8-methylpyrido[1,2-a]pyrimidinium perchlorate], 6.4 µM.

Test system in the next data set: not given
Assay: not given
Settings: not given
Turning to `CC1=CC2=NCC(C(=O)c3ccccc3)CN2C=C1` (stereo not drawn) (as salt: perchlorate) [Example 5, 3-Benzoyl-3,4-dihydro-2H-8-methylpyrido[1,2-a]pyrimidinium perchlorate], the melting point is above 290 °C.
As to `CC1=CC2=NCC(C(=O)c3ccc(Cl)cc3)CN2C=C1` (stereo not drawn) (as salt: perchlorate) [Example 7, 3-(4′-Chlorobenzoyl)-3,4-dihydro-2H-8-methylpyrido[1,2-a]pyrimidinium perchlorate], the melting point lay within 123 to 125 °C.
Consider `CC1=CC2=NCC(C(=O)c3ccc(Br)cc3)CN2C=C1` (stereo not drawn) (as salt: perchlorate) [Example 3, 3-(4′-Bromobenzoyl)-3,4-dihydro-2H-8-methylpyrido[1,2-a]pyrimidinium perchlorate], for which the melting point lay in the range of 158 to 161 °C.
Still for that read-out and setting: with `CC1=CC2=NCC(C(=O)c3ccccc3)CN2C(C)=C1` (stereo not drawn) (as salt: perchlorate) [Example 6, 3-Benzoyl-3,4-dihydro-2H-6,8-dimethylpyrido[1,2-a]pyrimidinium perchlorate] the figure was 78 °C; with `CC1=CC2=NCC(C(=O)c3ccc(-c4ccccc4)cc3)CN2C=C1` (stereo not drawn) (as salt: perchlorate) [Example 8, 3-(4′-Biphenylcarbonyl)-3,4-dihydro-2H-8-methylpyrido[1,2-a]pyrimidinium perchlorate], 111 °C.

(Values after patent US7320980B2, “Substituted pyrido(1,2-a)pyrimidines and their use as NOS inhibitors” (Gruenenthal GmbH, priority 2003, dated 2008).)
